ChEMBL document CHEMBL5241069, “A key review on oxadiazole analogs as potential methicillin-resistant Staphylococcus aureus (MRSA) activity: Structure-activity relationship studies” (Eur J Med Chem, 2021)
Converted amounts (≈) assume the structure as drawn.

How the values were obtained:
[1] = system: Staphylococcus aureus; test: microbe, parasite or virus in culture; conditions: 032
Description: Antibacterial activity against methicillin resistant Staphylococcus aureus 032 assessed as inhibition of bacterial growth by CLSI protocol based serial dilution method

[2] = system: Staphylococcus aureus; test: Antibacterial activity against methicillin resistant Staphylococcus aureus 42 assessed as inhibition of bacterial growth; assay type: functional
[3] = system: Staphylococcus aureus; test: Antibacterial activity against methicillin resistant Staphylococcus aureus 128 assessed as inhibition of bacterial growth; assay type: functional
[4] = system: Staphylococcus aureus; test: Antibacterial activity against methicillin resistant Staphylococcus aureus 181 assessed as inhibition of bacterial growth; assay type: functional
[5] = system: Staphylococcus aureus; test: Antibacterial activity against methicillin resistant Staphylococcus aureus 747 assessed as inhibition of bacterial growth; assay type: functional
[6] = system: Staphylococcus aureus; test: Antibiofilm activity against methicillin resistant Staphylococcus aureus ATCC 43866 assessed as inhibition of biofilm formation incubated for 18 to 24 hrs by tissue culture plate method; assay type: functional; conditions: time 18-24 hrs
[7] = system: Staphylococcus aureus; test: Antibacterial activity methicillin resistant Staphylococcus aureus 2658 RCMB assessed as inhibition of bacterial growth by broth microdilution method; assay type: functional
[8] = system: Staphylococcus aureus; test: Antibacterial activity against methicillin resistant Staphylococcus aureus assessed as inhibition zone by disc diffusion method; assay type: functional
[9] = system: Staphylococcus aureus; test: Antibacterial activity against methicillin resistant Staphylococcus aureus assessed as inhibition of bacterial growth by broth dilution technique; assay type: functional

| Structure (SMILES) | MIC [2] [µg/mL] | MIC [3] [µg/mL] | MIC [4] [µg/mL] | MIC [5] [µg/mL] | other results |
| --- | --- | --- | --- | --- | --- |
| Cc1cc(C)c2occ(/C=C(/c3ccc([N+](=O)[O-])cc3)c3noc(C)n3)c(=O)c2c1 | – | – | – | – | MIC [1]: > 32 µg/mL |
| O=c1c(F)cnc2onc(-c3ccc(F)cc3F)n12 | 96.4 (≈ 361 µM) | 87.4 (≈ 327 µM) | 100 (≈ 375 µM) | ≥ 125 | – |
| Cn1c(-c2nnc(-c3ccccc3)o2)cc(Br)c1Br | – | – | – | – | MIC [6]: 6.25 µg/mL (≈ 16.3 µM) |
| Cc1nc(-c2ccc(C(C)(C)C)cc2)sc1-c1nnc(NC(=N)c2cccnc2)o1 | – | – | – | – | MIC [7]: > 50 µg/mL |
| O=c1c(F)cnc2onc(-c3c(F)cccc3F)n12 | 122 (≈ 458 µM) | ≥ 125 | 120 (≈ 447 µM) | ≥ 125 | – |
| Cc1nc(/C(=C\c2coc3ccccc3c2=O)c2ccc([N+](=O)[O-])cc2)no1 | – | – | – | – | MIC [1]: > 32 µg/mL |
| Cc1nc(/C(=C\c2coc3cc(C)c(Cl)cc3c2=O)c2ccc([N+](=O)[O-])cc2)no1 | – | – | – | – | MIC [1]: 16 µg/mL (≈ 37.8 µM) |
| O=c1c(F)cnc2onc(-c3ccccc3Cl)n12 | ≥ 125 | ≥ 125 | ≥ 125 | ≥ 125 | – |
| CO/N=C(\C(=O)N[C@@H]1C(=O)N2C(C(=O)[O-])=C(C[N+]3(C)CCCC3)CS[C@H]12)c1csc(N)n1 | 36.5 (≈ 76 µM) | 20 (≈ 41.6 µM) | 15.2 (≈ 31.6 µM) | 26.9 (≈ 56 µM) | – |
| C=CCCCCCCCc1nnc(-c2ccccc2Cl)o1 | – | – | – | – | inhibition zone (IZ) [8]: 14.4 mm; MIC [9]: 12.5 µg/mL (≈ 41 µM) |
| O=c1c(Br)cnc2onc(-c3cccc(Cl)c3Cl)n12 | 86.2 (≈ 239 µM) | 90.3 (≈ 250 µM) | ≥ 125 | ≥ 125 | – |
| O=c1c(Br)cnc2onc(-c3ccc(Br)cc3)n12 | 114 (≈ 306 µM) | 120 (≈ 325 µM) | ≥ 125 | ≥ 125 | – |
| O=c1c(F)cnc2onc(-c3ccc(Cl)cc3)n12 | 111 (≈ 416 µM) | ≥ 125 | ≥ 125 | ≥ 125 | – |
| CCCCCCCCCCCCCCc1nnc(-c2ccco2)o1 | – | – | – | – | inhibition zone (IZ) [8]: 15.5 mm; MIC [9]: 12.5 µg/mL (≈ 37.6 µM) |
| CCCCCCCCCCCCCCc1nnc(-c2ccccc2Cl)o1 | – | – | – | – | inhibition zone (IZ) [8]: 12.1 mm; MIC [9]: 12.5 µg/mL (≈ 33.2 µM) |
| CC1(C)S[C@@H]2[C@H](NC(=O)[C@H](N)c3ccccc3)C(=O)N2[C@H]1C(=O)O [AMPICILLIN] | – | – | – | – | MIC [1]: > 32 µg/mL |
| CCCCCCCC/C=C/CCCCCCc1nnc(-c2ccco2)o1 | – | – | – | – | inhibition zone (IZ) [8]: 20.8 mm; MIC [9]: 12.5 µg/mL (≈ 34.9 µM) |
| Cc1ccc(-c2noc3ncc(Br)c(=O)n23)cc1 | 119 (≈ 388 µM) | ≥ 125 | ≥ 125 | ≥ 125 | – |
| Cc1ccc2occ(/C=C(/c3ccc([N+](=O)[O-])cc3)c3noc(C)n3)c(=O)c2c1 | – | – | – | – | MIC [1]: > 32 µg/mL |
| Cc1nc(/C(=C\c2coc3ccc(F)cc3c2=O)c2ccc([N+](=O)[O-])cc2)no1 | – | – | – | – | MIC [1]: > 32 µg/mL |
| Cc1nc(-c2ccc(C(C)(C)C)cc2)sc1-c1nnc(NC(=N)N2CCOCC2)o1 | – | – | – | – | MIC [7]: 25 µg/mL (≈ 58.6 µM) |
| CCCC(O)C/C=C/CCCCCCc1nnc(-c2ccco2)o1 (stereo not given) | – | – | – | – | inhibition zone (IZ) [8]: 18.3 mm; MIC [9]: 12.5 µg/mL (≈ 37.6 µM) |
| Cc1nc(/C(=C\c2coc3c(Cl)cc(Cl)cc3c2=O)c2ccc([N+](=O)[O-])cc2)no1 | – | – | – | – | MIC [1]: 32 µg/mL (≈ 72 µM) |
| C=Cc1ccc(Oc2nnc(-c3cc(Br)c(Br)n3C)o2)c(OC)c1 | – | – | – | – | MIC [6]: 25 µg/mL (≈ 54.9 µM) |
| Cc1nc(-c2ccc(C(C)(C)C)cc2)sc1-c1nnc(NN)o1 | – | – | – | – | MIC [7]: 6.25 µg/mL (≈ 19 µM) |
| Cn1c(-c2nnc(-c3ccncc3)o2)cc(Br)c1Br | – | – | – | – | MIC [6]: 3.12 µg/mL (≈ 8.14 µM) |
| O=c1c(F)cnc2onc(-c3ccc(Cl)cc3Cl)n12 | 116 (≈ 388 µM) | ≥ 125 | ≥ 125 | ≥ 125 | – |
| CC[C@H]1OC(=O)[C@H](C)[C@@H](O[C@H]2C[C@@](C)(OC)[C@@H](O)[C@H](C)O2)[C@H](C)[C@@H](O[C@@H]2O[C@H](C)C[C@H](N(C)C)[C@H]2O)[C@](C)(O)C[C@@H](C)C(=O)[C@H](C)[C@@H](O)[C@]1(C)O [ERYTHROMYCIN] | – | – | – | – | MIC [1]: > 32 µg/mL |
| Cn1c(-c2nnc(-c3ccc(N)cc3)o2)cc(Br)c1Br | – | – | – | – | MIC [6]: 1.56 µg/mL (≈ 3.92 µM) |
| O=c1c(Br)cnc2onc(-c3ccccc3Cl)n12 | 76.4 (≈ 234 µM) | 84.4 (≈ 258 µM) | 79.4 (≈ 243 µM) | 79.4 (≈ 243 µM) | – |
